Test results: patent US9290737B2, “Method for enucleating nucleated erythrocyte, and enucleation inducer” (Kanazawa Medical University, priority 2009, dated 2016)
Where no end group is shown, it is not given here.

Tests used:
Assay type in all cases: cell-based
[1] = tested on: nucleated erythrocytes derived from a fetal rat; assay: Enucleation rate of nucleated erythrocytes derived from fetal rat (DAPI staining, fluorescence microscope count); settings: vs control without peptide
Experimental: Experimental rats were bred, and peripheral blood was collected from 12 fetuses aged 13 days post coitum.
The collected peripheral blood was centrifuged at 1,000×g for 5 minutes at room temperature (centrifuge: Hitachi/05PR-22). Then, serum was removed, and blood cells were suspended in 10 ml of culture medium (supplemented with 10% FBS (Sigma/CR1211)/RPMI-1640 Medium (c) (Sigma/R8578)/1% penicillin-streptomycin (Sigma/P4333)) in a clean bench. This suspension was centrifuged again, a supernatant was removed, and the cells were resuspended in the culture medium. This manipulation was repeated twice, and finally the cells were suspended in 10 ml of the culture medium to prepare a sample for culturing peripheral blood.
A blood cell (cell) density was counted using about 10 μl of this sample and a hemocytometer (Burker-Turk Deep 1/10 mm/Erma Tokyo/7787), and the sample was diluted based on the counted value to adjust to 2×10^6 cells/ml.
(§1) This sample was diluted to a cell density of 1×10^6 cells/ml with the culture medium, to which ACTH1-24 (SEQ ID NO: 2, manufactured by Sigma) was added at a final concentration of 1 μM or 5 μM to use as a subject culture medium. The sample to which no ACTH1-24 was added was used as a control.
1 ml each of the various subject culture media was dispensed into a 4-well chamber slide glass (Chamber Slide™ System/Lab Tek (registered trademark)/177380), and cultured for a predetermined period of time in an incubator (Sakura CO2 gas Incubator/Sakura/IC-160) under the condition at 37° C. at 5% CO2.
At 0, 3, and 6 hours of the culture, the cells in each subject culture medium were fixed with glutaraldehyde (25% glutaraldehyde solution/Wako Pure Chemical Industries Ltd./073-00536) at a final concentration of 2%. DAPI (1 mg/ml of DAPI solution/DOJINDO/340-07971) for staining nuclei was dripped to the culture medium at a final volume ratio of 1/20,000, which was then shaken for 5 minutes, subsequently excited by a UV source using a fluorescence microscope (OLYMPUS IX70), and 10 fixed points were photographed. Then, the number of cells in the photograph was counted.
The enucleation rate was calculated as follows. Enucleation rate (%)={Enucleated erythrocyte count/Total cell count (Nucleated cell (including nucleated erythrocytes and mesenchymal stem cells) count+Enucleated erythrocyte count)} […]
as §1, with “CLIP” for “ACTH1-24”, “11, manufactured by Sigma) or α-MSH (SEQ ID NO: 3,” for “2,”, “neither CLIP nor α-MSH” for “no ACTH1-24”
250 μl each of the various subject culture media were dispensed in an 8-well chamber slide glass (Chamber Slide™ System/Lab TekR/177402), and cultured for a predetermined period of time in an incubator under the condition at 37° C. at 5% CO2. At 3, 6, and 9 (only for the 5-μM addition samples) hours of the culture, each subject culture medium was sampled, and the culture medium was fixed with glutaraldehyde at a final concentration of 2%. DAPI for staining nuclei was dripped to the culture medium, which was then shaken for 5 minutes, subsequently microscopically observed using a fluorescence microscope, and 10 field images were randomly determined and photographed. The number of cells in each of the photographs was counted, and the mean value thereof was calculated. The enucleation rate was calculated in the same way as in Example 1.

[2] = tested on: nucleated erythrocytes derived from human cord blood; assay: Enucleation rate of nucleated erythrocytes derived from human cord blood CD34-positive cells (DAPI staining and flow cytometry); settings: 5.0 μM added on Day 4 in phase II, measured on Day 9; DAPI staining (FIG. 7) and flow cytometry (FIG. 8)
Experimental: CD34-positive hematopoietic stem cells derived from a human (derived from the cord blood, 90% or more CD34-positive, product from Lonza:
http://catalog.takara-bio.co.jp/product/basic_info.asp?unitid=U10 0004262) were cultured in HPGM medium. The cells at a density of 2×10^4 to 2×10^5 cells/ml were cultured with 25 ng/ml of SCF, 50 ng/ml of thrombopoietin, and 50 ng/ml of Flt-3 ligand for first 7 days, and this was used as a phase I.
Next, the cells at a density of 2×10^5 cells/ml were cultured with 3 U/ml of EPO, 25 ng/ml of SCF, 10 ng/ml of IL-3, and 10 ng/ml of IL-6, and this was used as a phase II. The cells were cultured with the addition of ACTH1-24, ACTH1-39, CLIP, or α-MSH at a concentration of 5.0 μM, or ACTH1-24 at a concentration of 0.5 μM on Day 4 in the phase II.
The erythrocytes in the above-mentioned phase II cultured with ACTH1-24, ACTH1-39, CLIP, or α-MSH on Day 9 were fixed with 10% formalin, and stained with 4′,6-diamidino-2-phenylindole (DAPI). Ten photographs were randomly taken under a fluorescence microscope, and the numbers of nucleated and enucleated erythrocytes were visually counted. The measurement was carried out in the blinded manner. The enucleation rate was calculated in the same manner as in Example 1.
(§2) Double staining for glycophorin A (Gly A) and the nucleus (propidium iodide, PI) was given to blood cells in the phase II cultured with ACTH1-24, CLIP, or α-MSH on Day 9 in the same manner as in the foregoing. The cells were analyzed using a flow cytometry (automatic cell analysis sorting apparatus, FACS Calibur/Becton Dickinson). Gly A-positive/PI-negative cells (corresponding to the left upper fraction of four dot plot fractions divided by data from flow cytometry in FIG. 9B) were determined as enucleated cells, and the enucleation rate of these enucleated cells relative to the total cells was calculated.

[3] = tested on: cells differentiating into erythrocytes derived from human cord blood; assay: Enucleation efficiency of cells derived from human cord blood (flow cytometry, Gly A/PI); settings: 0.5 μM, culture as in Example 4, flow cytometry (FIG. 9A)
Experimental: as §2
ACTH1-24 at a concentration of 0.5 μM was added to the culture carried out in the same manner as in Example 4, and the enucleation rate was measured by flow cytometry.
Gly A is a surface marker of erythroblasts, reticulocytes, and mature erythrocytes. Thus, this method was cited as a method of measuring the percentage of “enucleated erythrocytes”/“cells differentiating into erythrocytes” in a population of blood cells including immature erythrocytes (see Peng J. et al., Nat. Cell Biol., 10: 314-321, 2008).

[4] = final concentration 1 μM, after 6 hours of culture
[5] = final concentration 5 μM, 3 hours of culture

## Acetyl-(N)-Ser-Tyr-Ser-Met-Glu-His-Phe-Arg-Trp-Gly-Lys-Pro-Val-NH2 (Ac-SYSMEHFRWGKPV-NH2) [α-MSH, melanocyte-stimulating hormone peptide containing an acetyl group, manufactured by Sigma]
[1]; [4]
  induction of enucleation (enucleation rate): able to be induced
[1]; [5]
  induction of enucleation (enucleation rate): able to be induced
[2]
  induction of enucleation (enucleation rate): able to be induced

## RPVKVYPNGAEDESAEAFPLEF [CLIP, Corticotropin-Like Intermediate Lobe Peptide, manufactured by Sigma]
[1]; [4]
  induction of enucleation (enucleation rate): able to be induced
[1]; [5]
  induction of enucleation (enucleation rate): able to be induced
[2]
  induction of enucleation (enucleation rate): able to be induced

## SYSMEHFRWGKPVGKKRRPVKVYPNVAENESAEAFPLEF [ACTH1-39, adrenocorticotropic hormone, manufactured by Sigma]
[1]; [5]
  induction of enucleation (enucleation rate): higher than that in the control
[2]
  induction of enucleation (enucleation rate): able to be induced

## Ser-Tyr-Ser-Met-Glu-His-Phe-Arg-Trp-Gly-Lys-Pro-Val-Gly-Lys-Lys-Arg-Arg-Pro-Val-Lys-Val-Tyr-Pro (SYSMEHFRWGKPVGKKRRPVKVYP; ACTH1-24)
[1]; [4]
  induction of enucleation (enucleation rate): able to be induced
[1]; final concentration 5 μM, after 6 hours of culture
  induction of enucleation (enucleation rate): able to be induced
[2]
  induction of enucleation (enucleation rate): able to be induced
[3]
  percentage of enucleated erythrocytes in cells differentiating into erythrocytes: about 70%
